Common to all, as to assay type: biochemical
Test [1] deals with MAPKAP-K3 (Homo sapiens, UniProt Q16644). Description: Kinase profiling MAPKAP-K3. Particulars: for remaining activity at 100 µM: read-out: residual kinase activity, MAPKAP-K3. From the text: (§1) Any value less that 25 is considered to be highly significant inhibition.
Test [2] addresses SIK2 (Homo sapiens, UniProt Q9H0K1). Description: Kinase profiling SIK2. Particulars: for remaining activity at 100 µM: read-out: residual kinase activity, SIK2.
Excerpt: as §1

Test [3] addresses T1, EIF2AK3 (Homo sapiens, UniProt Q9NZJ5).
T1 sequence (Q9NZJ5 30-1116): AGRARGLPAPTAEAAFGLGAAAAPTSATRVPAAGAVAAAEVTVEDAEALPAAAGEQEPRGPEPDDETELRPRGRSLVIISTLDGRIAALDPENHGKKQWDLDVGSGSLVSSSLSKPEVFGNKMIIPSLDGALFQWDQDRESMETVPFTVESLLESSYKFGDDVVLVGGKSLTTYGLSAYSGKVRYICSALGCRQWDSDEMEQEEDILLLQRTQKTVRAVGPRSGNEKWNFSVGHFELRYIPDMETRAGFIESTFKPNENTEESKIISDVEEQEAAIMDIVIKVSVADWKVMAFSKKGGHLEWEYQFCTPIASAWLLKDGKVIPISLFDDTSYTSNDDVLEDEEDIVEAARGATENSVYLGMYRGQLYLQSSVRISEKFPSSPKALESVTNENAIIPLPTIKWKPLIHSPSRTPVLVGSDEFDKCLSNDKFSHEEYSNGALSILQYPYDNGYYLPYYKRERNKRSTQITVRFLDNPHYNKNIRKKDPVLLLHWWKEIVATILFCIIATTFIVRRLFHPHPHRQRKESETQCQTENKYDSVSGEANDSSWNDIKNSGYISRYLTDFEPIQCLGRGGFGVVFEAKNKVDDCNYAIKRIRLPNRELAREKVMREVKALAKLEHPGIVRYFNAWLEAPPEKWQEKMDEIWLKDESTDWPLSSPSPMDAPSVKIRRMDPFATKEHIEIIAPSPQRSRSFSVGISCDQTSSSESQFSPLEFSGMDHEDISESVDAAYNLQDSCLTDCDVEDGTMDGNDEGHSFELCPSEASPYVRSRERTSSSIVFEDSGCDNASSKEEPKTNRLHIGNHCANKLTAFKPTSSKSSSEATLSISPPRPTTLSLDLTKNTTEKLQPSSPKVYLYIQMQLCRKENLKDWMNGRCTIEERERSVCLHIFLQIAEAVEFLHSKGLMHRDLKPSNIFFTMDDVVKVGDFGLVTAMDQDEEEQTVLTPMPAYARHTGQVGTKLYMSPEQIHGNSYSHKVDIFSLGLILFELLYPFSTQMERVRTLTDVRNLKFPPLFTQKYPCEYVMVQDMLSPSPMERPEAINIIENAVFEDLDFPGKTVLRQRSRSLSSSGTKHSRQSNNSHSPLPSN
The test is described as follows: Kinase profiling EIF2AK3. Particulars: for remaining activity at 100 µM: read-out: residual kinase activity, EIF2AK3.
Excerpt: as §1

Test [4] concerns the target MPSK1 (Homo sapiens, UniProt O75716). Description: Kinase profiling MPSK1. The note with it: for remaining activity at 100 µM: read-out: residual kinase activity, MPSK1.
Excerpt: as §1

Test [5] concerns the target T2, DDR2 (Homo sapiens, UniProt Q16832).
T2 sequence (Q16832 22-855): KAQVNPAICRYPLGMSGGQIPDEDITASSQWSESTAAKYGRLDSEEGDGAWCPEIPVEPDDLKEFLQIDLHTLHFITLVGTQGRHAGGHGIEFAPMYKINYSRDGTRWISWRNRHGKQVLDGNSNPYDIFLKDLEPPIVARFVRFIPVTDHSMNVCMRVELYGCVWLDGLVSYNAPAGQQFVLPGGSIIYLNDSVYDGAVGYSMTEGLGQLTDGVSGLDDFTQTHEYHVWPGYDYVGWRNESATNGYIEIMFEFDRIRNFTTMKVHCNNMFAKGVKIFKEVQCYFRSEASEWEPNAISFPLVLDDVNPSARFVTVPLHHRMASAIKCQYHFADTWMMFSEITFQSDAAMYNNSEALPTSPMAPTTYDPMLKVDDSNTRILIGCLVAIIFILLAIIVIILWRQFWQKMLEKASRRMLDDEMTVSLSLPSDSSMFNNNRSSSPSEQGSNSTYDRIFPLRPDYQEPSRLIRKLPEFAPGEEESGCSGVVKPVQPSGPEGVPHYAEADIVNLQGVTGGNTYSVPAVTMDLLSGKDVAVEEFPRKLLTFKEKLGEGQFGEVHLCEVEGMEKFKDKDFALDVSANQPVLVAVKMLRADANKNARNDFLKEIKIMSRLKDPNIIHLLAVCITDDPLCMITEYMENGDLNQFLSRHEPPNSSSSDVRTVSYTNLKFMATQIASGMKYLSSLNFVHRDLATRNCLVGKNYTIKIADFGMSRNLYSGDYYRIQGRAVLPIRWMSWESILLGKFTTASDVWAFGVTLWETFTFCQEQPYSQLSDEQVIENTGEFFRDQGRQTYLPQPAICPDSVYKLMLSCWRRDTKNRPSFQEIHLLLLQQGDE
The test is described as follows: Kinase profiling DDR2. Particulars: for remaining activity at 100 µM: read-out: residual kinase activity, DDR2.
Excerpt: as §1

Setting [6] is: 100 micromolar inhibitor concentration, 100 is no change.
The mark [7] stands for this setting: 100 micromolar inhibitor, 100 = no change.

The values that follow come from patent publication US10231954B2, “Neurodegenerative therapies” (LYTIX BIOPHARMA AS, priority 2014, dated 2019).

Like-named read-outs stand apart in the source and are kept apart here.

MPSK1, sequence (O75716 whole entry, species assumed): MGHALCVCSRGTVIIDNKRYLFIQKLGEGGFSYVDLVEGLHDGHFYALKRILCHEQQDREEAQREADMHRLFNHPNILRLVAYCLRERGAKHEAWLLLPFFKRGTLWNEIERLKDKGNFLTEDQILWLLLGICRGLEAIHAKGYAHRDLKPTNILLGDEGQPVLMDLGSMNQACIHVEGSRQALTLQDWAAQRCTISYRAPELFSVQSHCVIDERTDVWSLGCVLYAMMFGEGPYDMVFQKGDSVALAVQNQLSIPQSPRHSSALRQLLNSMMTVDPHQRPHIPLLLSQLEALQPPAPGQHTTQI
MAPKAP-K3, sequence (Q16644 whole entry, species assumed): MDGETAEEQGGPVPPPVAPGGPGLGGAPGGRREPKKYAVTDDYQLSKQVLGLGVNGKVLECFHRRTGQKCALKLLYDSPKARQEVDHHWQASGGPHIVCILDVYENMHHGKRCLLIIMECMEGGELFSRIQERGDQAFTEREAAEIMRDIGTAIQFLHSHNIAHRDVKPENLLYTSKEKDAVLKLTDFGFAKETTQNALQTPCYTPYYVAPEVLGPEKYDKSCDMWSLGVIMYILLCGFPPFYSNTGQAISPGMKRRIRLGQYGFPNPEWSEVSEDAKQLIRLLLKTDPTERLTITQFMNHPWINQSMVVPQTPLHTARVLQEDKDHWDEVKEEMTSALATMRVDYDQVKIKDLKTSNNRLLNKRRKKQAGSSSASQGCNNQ
SIK2, sequence (Q9H0K1 whole entry, species assumed): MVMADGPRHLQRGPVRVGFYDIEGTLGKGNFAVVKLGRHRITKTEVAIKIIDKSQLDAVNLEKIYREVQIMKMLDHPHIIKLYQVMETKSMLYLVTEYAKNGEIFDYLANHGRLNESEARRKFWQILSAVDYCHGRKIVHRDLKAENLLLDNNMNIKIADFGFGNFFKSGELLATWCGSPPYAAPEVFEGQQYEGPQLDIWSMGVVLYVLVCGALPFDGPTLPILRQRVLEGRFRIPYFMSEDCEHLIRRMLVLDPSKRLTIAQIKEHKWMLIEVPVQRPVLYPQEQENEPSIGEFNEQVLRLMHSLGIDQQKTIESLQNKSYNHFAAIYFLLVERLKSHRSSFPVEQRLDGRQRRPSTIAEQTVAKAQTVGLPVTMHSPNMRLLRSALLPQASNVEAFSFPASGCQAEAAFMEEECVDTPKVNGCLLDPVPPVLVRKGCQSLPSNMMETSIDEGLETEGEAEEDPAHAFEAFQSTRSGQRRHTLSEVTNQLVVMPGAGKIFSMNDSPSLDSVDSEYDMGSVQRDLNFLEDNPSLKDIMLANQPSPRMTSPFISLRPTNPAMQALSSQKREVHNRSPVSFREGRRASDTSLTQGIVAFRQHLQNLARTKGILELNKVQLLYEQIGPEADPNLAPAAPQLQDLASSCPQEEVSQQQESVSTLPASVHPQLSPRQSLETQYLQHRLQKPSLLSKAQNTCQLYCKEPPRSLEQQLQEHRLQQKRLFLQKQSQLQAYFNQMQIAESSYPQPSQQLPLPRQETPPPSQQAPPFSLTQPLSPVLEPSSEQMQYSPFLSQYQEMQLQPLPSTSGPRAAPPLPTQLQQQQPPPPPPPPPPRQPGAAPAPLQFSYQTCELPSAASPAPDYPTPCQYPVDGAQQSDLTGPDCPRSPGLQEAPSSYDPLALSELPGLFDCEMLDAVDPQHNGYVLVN

Turning to `CC(=O)Nc1nc2cc(O)ccc2s1` [Compound 01-66, N-(5-hydroxybenzo[d]thiazol-2-yl)acetamide], the remaining activity at 100 µM in test [1] is 39%; in test [2], 56%; in test [3], 59%; in test [4] it was 80%; in test [5], 65%.
As for `CC(=O)Nc1nc2ccc(O)cc2s1` [Compound 01-71], the remaining activity at 100 µM in test [1] (setting [6]) came out at 34%; in test [2] (setting [6]), 32%; in test [3] (setting [6]), 77%; in test [4] (setting [6]) it was 77%; in test [5] (setting [6]), 56%.
For `CC(=O)Nc1nc2ccc(C(F)(F)F)cc2s1` [Compound 01-90], the remaining activity at 100 µM in test [1] (setting [6]) is 101%; in test [2] (setting [6]), 72%; in test [3] (setting [6]), 105%; in test [4] (setting [6]), 105%; in test [5] (setting [6]), 62%.
As for `CC(=O)Nc1nc2ccc(C#N)cc2s1` [Compound 01-94], the remaining activity at 100 µM in test [1] (setting [6]) was 101%; in test [2] (setting [6]), 70%; in test [3] (setting [6]), 78%; in test [4] (setting [6]), 94%; in test [5] (setting [6]) it was 93%.
In the case of `CC(=O)Nc1cccc(NC(=O)c2nc3ccc(O)cc3s2)c1` [Compound 03-07, N-(3-acetamidophenyl)-6-hydroxybenzo[d]thiazole-2-carboxamide], the remaining activity at 100 µM is 34% in test [1] (setting [7]); 28% in test [2] (setting [7]); 69% in test [3] (setting [7]); 108% in test [4] (setting [7]); 90% in test [5] (setting [7]).
On to `O=C(Nc1nc2cc(O)ccc2s1)c1ccncc1` [Compound 03-11], for which the “residual kinase activity, MAPKAP-K3” value in test [1] (setting [6]) is given as 68. In test [2] (setting [6]), the “residual kinase activity, SIK2” value was 79. The “residual kinase activity, EIF2AK3” value in test [3] (setting [6]) came to 65. In addition, the “residual kinase activity, MPSK1” value in test [4] (setting [6]) is listed as 73. The “residual kinase activity, DDR2” value in test [5] (setting [6]) was 115.
For `O=C(Nc1nc2ccc(O)cc2s1)c1ccccn1` [Compound 03-12], the “residual kinase activity, MAPKAP-K3” value in test [1] (setting [6]) is given as 31. For the same molecule, in test [2] (setting [6]), the “residual kinase activity, SIK2” value is listed as 77. Further, the “residual kinase activity, EIF2AK3” value in test [3] (setting [6]) is reported as 73. Besides, the “residual kinase activity, MPSK1” value in test [4] (setting [6]) turned out to be 90. In test [5] (setting [6]), the “residual kinase activity, DDR2” value is recorded as 104.
On to `O=C(Nc1nc2cc(O)ccc2s1)c1ccccn1` [Compound 03-13], for which the “residual kinase activity, MAPKAP-K3” value in test [1] (setting [6]) is reported as 62. In test [2] (setting [6]), the “residual kinase activity, SIK2” value was 96. The “residual kinase activity, EIF2AK3” value in test [3] (setting [6]) came out at 89. For the same molecule, in test [4] (setting [6]), the “residual kinase activity, MPSK1” value came out at 102. In addition, in test [5] (setting [6]), the “residual kinase activity, DDR2” value turned out to be 85.
On to `COc1ccc2sc(NC(C)=O)nc2c1` [Compound 03-21], for which the remaining activity at 100 µM was determined as 97% in test [1] (setting [6]); 89% in test [2] (setting [6]); 82% in test [3] (setting [6]); 97% in test [4] (setting [6]); 102% in test [5] (setting [6]).
As to `CC(=O)Nc1nc2ccccc2s1` [Compound 03-32], the “residual kinase activity, MAPKAP-K3” value in test [1] (setting [6]) stood at 61. The “residual kinase activity, SIK2” value in test [2] (setting [6]) was 81. Besides, the “residual kinase activity, EIF2AK3” value in test [3] (setting [6]) worked out at 104. Further, the “residual kinase activity, MPSK1” value in test [4] (setting [6]) turned out to be 86. Moreover, the “residual kinase activity, DDR2” value in test [5] (setting [6]) is 97.
`O=C(Nc1nc2cc(O)ccc2s1)c1cccnc1` [Compound 03-33]: the “residual kinase activity, MAPKAP-K3” value in test [1] (setting [6]) stood at 97. For the same molecule, the “residual kinase activity, SIK2” value in test [2] (setting [6]) was 69. Further, the “residual kinase activity, EIF2AK3” value in test [3] (setting [6]) was 87. Also, in test [4] (setting [6]), the “residual kinase activity, MPSK1” value is 101. For the same molecule, the “residual kinase activity, DDR2” value in test [5] (setting [6]) is 109.
On to `O=C(Nc1nc2ccc(O)cc2s1)c1ccccc1` [Compound 03-60], for which the “residual kinase activity, MAPKAP-K3” value in test [1] (setting [6]) was determined as 92. For the same molecule, in test [2] (setting [6]), the “residual kinase activity, SIK2” value was determined as 26. Besides, in test [3] (setting [6]), the “residual kinase activity, EIF2AK3” value is reported as 45. In addition, the “residual kinase activity, MPSK1” value in test [4] (setting [6]) was 106. For the same molecule, the “residual kinase activity, DDR2” value in test [5] (setting [6]) is 112.
On to `CC(=O)Nc1nc2cc(C(F)(F)F)ccc2s1` [Compound 03-73], for which the remaining activity at 100 µM in test [1] (setting [6]) was found to be 93%; in test [2] (setting [6]) it was 91%; in test [3] (setting [6]) it was 100%; in test [4] (setting [6]), 97%; in test [5] (setting [6]), 111%.
For `CC(=O)Nc1nc2cc(C)ccc2s1` [Compound 03-76], in test [1] (setting [6]), the “residual kinase activity, MAPKAP-K3” value was determined as 106. In test [2] (setting [6]), the “residual kinase activity, SIK2” value is recorded as 71. Besides, the “residual kinase activity, EIF2AK3” value in test [3] (setting [6]) was 97. In test [4] (setting [6]), the “residual kinase activity, MPSK1” value was found to be 91. Further, the “residual kinase activity, DDR2” value in test [5] (setting [6]) came to 110.
Consider `CC(=O)Nc1nc2cc(F)ccc2s1` [Compound 03-77], for which the remaining activity at 100 µM in test [1] (setting [6]) was 107%; in test [2] (setting [6]), 64%; in test [3] (setting [6]), 99%; in test [4] (setting [6]), 86%; in test [5] (setting [6]) it was 101%.
In the case of `O=C(Nc1nc2ccc(O)cc2s1)c1ccncc1` [Compound 08-42], in test [1] (setting [6]), the “residual kinase activity, MAPKAP-K3” value came to 51. Moreover, the “residual kinase activity, SIK2” value in test [2] (setting [6]) was found to be 82. Also, the “residual kinase activity, EIF2AK3” value in test [3] (setting [6]) was found to be 59. In test [4] (setting [6]), the “residual kinase activity, MPSK1” value was 77. In addition, the “residual kinase activity, DDR2” value in test [5] (setting [6]) is recorded as 89.
With `O=C(Nc1nc2ccc(O)cc2s1)c1cccnc1` [Compound 08-44], the “residual kinase activity, MAPKAP-K3” value in test [1] (setting [6]) was 38. Moreover, in test [2] (setting [6]), the “residual kinase activity, SIK2” value stood at 68. Moreover, in test [3] (setting [6]), the “residual kinase activity, EIF2AK3” value is 51. In addition, in test [4] (setting [6]), the “residual kinase activity, MPSK1” value is on record as 81. For the same molecule, the “residual kinase activity, DDR2” value in test [5] (setting [6]) was 93.
